One may read the IC50 as the concentration that inhibits the measured activity by half. By AUC is commonly meant concentration integrated over time. Low values mean less exposure, high ones more exposure. What is called Cmax is the maximum level reached in the sampled fluid or tissue. What is called half-life is how long it takes for the measured level to halve. Read a low half-life as rapid decline. What is called bioavailability is dose-corrected exposure relative to a reference, in per cent. A lower bioavailability goes with little systemic uptake.

Data on 5 molecules can be found in patent US20260207605A1, “KRAS G12D INHIBITORS AND USES THEREOF” (Abbisko Therapeutics Co., Ltd., priority 2022, published 2026).

Structures are written as SMILES.

The target of one data set is KRAS^G12D/cRAF (Homo sapiens, UniProt P01116, G12D). The data set is described as follows: KRAS G12D/cRAF binding test (Alphalisa). The settings on record: His-tagged KRAS G12D with GMPPNP, GST-tagged cRAF. As to the method:
The compound was dissolved in 100% DMSO at a starting concentration of 5 mM and diluted in DMSO with a 3-fold serial dilution method for a total of 8 concentration points. 1 μL of the compound or DMSO at each concentration point was added into 99 μL of the experimental buffer to obtain 10× stock solution.
The ratio for each compound concentration was calculated from the signal of the DMSO control group contained in each assay plate and the Alphalisa signal in each compound well. The compound concentration required for inhibitory concentration at 50% (IC50) was determined using a four-parameter logarithmic dose-response equation by testing the concentration of the compound and the value of the ratio. The endpoint value (IC50) of the reference compound was assessed in each experiment as a quality control measure. If the endpoint value is within three times the expected value, the experiment may be considered acceptable.

The nature of data set [1]: Pharmacokinetic experiment in mice (single PO or IV administration). The settings on record: male, ICR, mouse, plasma.
Text: The purpose of this trial is to study the pharmacokinetic behavior of some compounds of the present invention, and the administration method is: single oral administration (PO) or intravenous administration (IV) to ICR mice.
ICR mice male N=9 original source: Shanghai Sippr-Bk Lab Animal Co., Ltd.
The compounds were weighed and dissolved in the corresponding solution (0.5% CMC+1% tween water solution or 10% PG+10% Solutol®+80% pH3 citrate buffer). The mixture was then shaken well and sonicated to prepare a 1 mg/mL stock solution. Nine mice were orally administered at a dose of 10 mg/kg or intravenously administered at a dose of 2 mg/kg after an overnight fast.
About 90 μL of blood was collected via the submandibular vein per time point, heparin sodium anticoagulant was added, the sample was placed on ice after collection, and plasma was centrifuged within 1 hour (centrifugation conditions: 8,000 rpm, 6 minutes, 2-8° C.). The blood collection timepoints were 0, 0.25, 0.5, 1, 2, 4, 6, 8 and 24 h. The samples were stored in a −20° C. refrigerator.
The plasma sample was 40 μL, 160 μL of ice-cold acetonitrile containing internal standard was added, vortexed for 3 minutes, and centrifuged at 11,000 rpm for 5 minutes. 100 μL of the supernatant was taken and added to 100 μL of water, 5 μL of the sample was taken and injected into LC/MS/MS for analysis.

KRAS^G12D/cRAF, sequence (P01116 1-188 isoform P01116-2 G12D): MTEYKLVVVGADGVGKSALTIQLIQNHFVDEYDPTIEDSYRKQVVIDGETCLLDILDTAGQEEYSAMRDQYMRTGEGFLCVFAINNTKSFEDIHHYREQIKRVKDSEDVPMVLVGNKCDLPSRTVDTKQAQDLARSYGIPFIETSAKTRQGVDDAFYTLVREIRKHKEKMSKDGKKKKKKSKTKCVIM

Take `C#Cc1c(F)ccc2cc(O)cc(-c3ncc4c(N5C[C@@H]6CC[C@](COC)(C5)N6)nc(OC[C@@]56CCCN5C/C(=C/F)C6)nc4c3F)c12` [Example 82, 5-ethynyl-6-fluoro-4-(8-fluoro-2-(((S,E)-2-(fluoromethylene)tetrahydro-1H-pyrrolizin-7a (5H)-yl)methoxy)-4-((1R,5S)-1-(methoxymethyl)-3,8-diazabicyclo [3.2.1]octan-3-yl)pyrido[4,3-d]pyrimidin-7-yl)naphthalen-2-ol]: on KRAS^G12D/cRAF, the concentration for half-maximal inhibition (IC50) is 8.1 nM.

Regarding `[2H]C([2H])([2H])C([2H])([2H])[C@@]12CC[C@@H](CN(c3nc(OC[C@@]45CCCN4C/C(=C\F)C5)nc4c(F)c(-c5ccc(F)c6sc(N)c(C#N)c56)c(Cl)cc34)C1)N2` [Example 360, 2-amino-4-(6-chloro-4-((1R,5S)-1-(ethyl-d5)-3,8-diazabicyclo [3.2.1]octan-3-yl)-8-fluoro-2-(((S,Z)-2-(fluoromethylene)tetra-hydro-1H-pyrrolizin-7a(5H)-yl)methoxy)quinazolin-7-yl)-7-fluoro-benzo[b]thiophene-3-carbonitrile], the half-maximal inhibitory concentration (IC50) on KRAS^G12D/cRAF was 20.2 nM.

In the case of `C#Cc1c(F)ccc2cc(O)cc(-c3ncc4c(N5C[C@H]6CC[C@@H](C5)N6)nc(OC[C@@]56CCCN5C/C(=C\F)C6)nc4c3F)c12` [Reference Compound 1, 4-(4-((1R,5S)-3,8-diazabicyclo [3.2.1]octan-3-yl)-8-fluoro-2-(((S,Z)-2-(fluoromethylene)tetrahydro-1H-pyrrolizin-7a(5H)-yl)methoxy)pyrido[4,3-d]pyrimidin-7-yl)-5-ethynyl-6-fluoronaphthalen-2-ol, reference compound], in data set [1] (iv, 2 mg/kg), the exposure (AUC) turned out to be 688 ng·h/mL, the concentration peaked (Cmax) at 1690 ng/mL and the half-life was 10.5 h. In data set [1] (po, 10 mg/kg), the AUC turned out to be 82.6 ng·h/mL, the concentration peaked (Cmax) at 33.2 ng/mL, the bioavailability is 2.4% and the half-life is 2.6 h.

In data set [1] (iv, 2 mg/kg), `C#Cc1c(F)ccc2cc(O)cc(-c3ncc4c(N5C[C@H]6CC[C@@H](C5)N6)nc(OC[C@@]56CCCN5C/C(=C/F)C6)nc4c3F)c12` [Reference Compound 2, 4-(4-((1R,5S)-3,8-diazabicyclo [3.2.1]octan-3-yl)-8-fluoro-2-(((S,E)-2-(fluoromethylene)tetrahydro-1H-pyrrolizin-7a(5H)-yl)methoxy)pyrido[4,3-d]pyrimidin-7-yl)-5-ethynyl-6-fluoronaphthalen-2-ol, reference compound] showed an AUC of 718 ng·h/mL, a Cmax of 1350 ng/mL and a half-life of 14.1 h. Besides, in data set [1] (po, 10 mg/kg), the AUC came to 43.2 ng·h/mL, the peak level (Cmax) was 27.7 ng/mL, the bioavailability turned out to be 1.2% and the half-life was 2.3 h.

Turning to `C#Cc1c(F)ccc2cc(O)cc(-c3ncc4c(N5C[C@H]6CC[C@@H](C5)N6)nc(OC[C@@]56CCCN5CC(=C)C6)nc4c3F)c12` [Reference Compound 3, 4-(4-((1R,5S)-3,8-diazabicyclo [3.2.1]octan-3-yl)-8-fluoro-2-(((S)-2-methylenetetrahydro-1H-pyrrolizin-7a(5H)-yl)methoxy)pyrido[4,3-d]pyrimidin-7-yl)-5-ethynyl-6-fluoronaphthalen-2-ol, reference compound], in data set [1] (po, 10 mg/kg), the AUC came out at 27.1 ng·h/mL, the Cmax is 10.7 ng/mL and the half-life was 2.6 h.
